Experimental data reported in PubChem BioAssay (NCI).
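Compound exposure: 48 hours, 5 concentrations, 96-well plates. GI50: concentration for 50% inhibition of growth. At the TGI there is no net growth.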

Columns and labels:
Assay in all cases: inhibition of tumour cell growth, NCI panel, 48 h
OVCAR-8 ovarian = tested on: OVCAR-8 ovarian
UACC-62 melanoma = tested on: UACC-62 melanoma
OVCAR-5 ovarian = tested on: OVCAR-5 ovarian
TK-10 renal = tested on: TK-10 renal
KM12 colon = tested on: KM12 colon
HCC-2998 colon = tested on: HCC-2998 colon
SK-MEL-28 melanoma = tested on: SK-MEL-28 melanoma
SR leukemia = tested on: SR leukemia
SK-MEL-2 melanoma = tested on: SK-MEL-2 melanoma
A498 renal = tested on: A498 renal

Row | Compound | GI50 (OVCAR-8 ovarian) | TGI (OVCAR-8 ovarian) | GI50 (UACC-62 melanoma) | TGI (UACC-62 melanoma) | GI50 (OVCAR-5 ovarian) | TGI (OVCAR-5 ovarian) | GI50 (TK-10 renal) | TGI (TK-10 renal) | GI50 (KM12 colon) | TGI (KM12 colon) | GI50 (HCC-2998 colon) | TGI (HCC-2998 colon) | GI50 (SK-MEL-28 melanoma) | TGI (SK-MEL-28 melanoma) | GI50 (SR leukemia) | TGI (SR leukemia) | GI50 (SK-MEL-2 melanoma) | TGI (SK-MEL-2 melanoma) | GI50 (A498 renal) | TGI (A498 renal)
1 | Nc1nccc(C#Cc2cncnc2Nc2ccc(OCc3cccc(F)c3)c(Cl)c2)n1 | 4.94 µM | 24.8 µM | 4.09 µM | 7.68 µM | 5.45 µM | 11.3 µM | 4.5 µM | 8.22 µM | 4.52 µM | 8.2 µM | 4.1 µM | 7.55 µM | 4.57 µM | 8.29 µM | 3.18 µM | > 25 µM | 4.98 µM | 9.34 µM | 5.05 µM | > 14.3 µM
2 | CC[C@]12C=CCN3CC[C@]4(C(=C(C(=O)OC)C1)Nc1ccccc14)[C@@H]32 | 3.75 µM | > 100 µM | 2.89 µM | 12 µM | 6.55 µM | 21.2 µM | 4.86 µM | 17.6 µM | 3.65 µM | 14.5 µM | 11.4 µM | 24.9 µM | 4.49 µM | 17.9 µM | 2.55 µM | 30.7 µM | 4.45 µM | 17.7 µM | 7.12 µM | 20.2 µM
3 | COc1cccc(C2C3=C(COC3=O)N(CCO)c3cc4c(cc32)CCC4)c1 (stereo unspecified) | 0.098 µM | > 17.1 µM | 34.2 µM | > 50 µM | 0.344 µM | > 50 µM | 2.13 µM | > 50 µM | 0.0219 µM | 0.443 µM | 0.0795 µM | 1.31 µM | 13.4 µM | > 50 µM | 0.015 µM | 0.165 µM | 0.0255 µM | 0.239 µM | 0.0154 µM | 0.0483 µM
4 | C[CH2][Sn]([CH2]C)([O]C(=O)c1cc(OC)c(OC)c(OC)c1)[O][Sn]([CH2]C)([CH2]C)[O]C(=O)c1cc(OC)c(OC)c(OC)c1 | > 42.8 µM | > 62.4 µM | 19.3 µM | 36.7 µM | > 100 µM | > 100 µM | 18.9 µM | 33.6 µM | > 100 µM | > 100 µM | > 76.1 µM | > 100 µM | 18.4 µM | 33.4 µM | 36.3 µM | > 100 µM | 16.3 µM | 35.3 µM | 25.6 µM | 43.9 µM
5 | S=c1nc(/C=C/c2ccc(Cl)c(Cl)c2)[nH][nH]1 |  | > 100 µM |  | > 100 µM |  | > 100 µM |  | > 100 µM |  | > 100 µM |  | > 100 µM |  | > 100 µM | 22.7 µM | > 100 µM |  | > 100 µM |  | > 100 µM
6 | CC1(C)CCC(CN2CCN(c3ccc(C(=O)NS(=O)(=O)c4ccc(NCC5CCOCC5)c([N+](=O)[O-])c4)c(Oc4cnc5[nH]ccc5c4)c3)CC2)=C(c2ccc(Cl)cc2)C1 | 3.22 µM | 16.5 µM | 0.782 µM | 2.16 µM | 3.19 µM | 11.6 µM | 2.26 µM | 6.34 µM | 2.98 µM | 9.86 µM | 2.1 µM | 3.92 µM | 1.41 µM | 6.79 µM | 3.21 µM | 13 µM | 1.63 µM | 3.36 µM | 1.58 µM | 4.43 µM
7 | CC(=O)C(CN1CCOCC1)C(c1ccccc1)c1c(O)c2ccccc2oc1=O (stereo unspecified) |  | > 100 µM |  | > 100 µM |  | > 100 µM |  | > 100 µM |  | > 100 µM |  | > 100 µM |  | > 100 µM |  | > 100 µM |  | > 100 µM |  | > 100 µM
8 | c1ccc(COc2ccc(Nc3ncnc4ccc(-c5ccco5)cc34)cc2)cc1 | 11.3 µM | > 25 µM | 5.75 µM | 14.3 µM | 4.57 µM | 14.8 µM | 3.26 µM | 16.3 µM | 6.09 µM | 14.7 µM | 10.6 µM | > 25 µM | 9.51 µM | > 25 µM | 6.7 µM | > 25 µM | 9.68 µM | 24.6 µM | 5.39 µM | > 21.6 µM
9 | COc1ccc(C2=NN(c3ccc(S(N)(=O)=O)cc3)C(c3ccc(Cl)cc3)C2)c(O)c1 (stereo unspecified) | 4.74 µM | 44.4 µM | 5.89 µM | 19.7 µM | 9.44 µM | 29.3 µM | 2.49 µM | 9.02 µM | 2.67 µM | 7.91 µM | 2.62 µM | 5.37 µM | 5.06 µM | 18.1 µM | 0.897 µM | 3.61 µM | 6.3 µM | 22.7 µM | 3.89 µM | 14.5 µM
10 | Cc1cc(N(CCC#N)CCC#N)ccc1N=Nc1ccc([N+](=O)[O-])cc1 |  | 56.9 µM |  | > 10 µM |  | > 100 µM |  | 83.2 µM |  | > 100 µM |  | > 100 µM |  | > 100 µM |  | > 100 µM |  | > 100 µM |  | > 100 µM
